The supplement of paper PMC8967900

Tests used:
Experiment in all cases: selective drug sensitivity score (sDSS, relative to normal bone marrow) (sDSS (score)); higher = more potent and effective on the cell line relative to normal bone marrow cells
Details in all cases: 72 h
697 = tested on: 697
ALL-PO = tested on: ALL-PO
ALL-SIL = tested on: ALL-SIL
COG-LL-317 = tested on: COG-LL-317
COG-LL-319h = tested on: COG-LL-319h
COG-LL-332h = tested on: COG-LL-332h
COG-LL-402h = tested on: COG-LL-402h
KASUMI-10 = tested on: KASUMI-10
KASUMI-2 = tested on: KASUMI-2
LC4-1 = tested on: LC4-1
MHH-CALL-2 = tested on: MHH-CALL-2
MHH-CALL-4 = tested on: MHH-CALL-4
MOLT-14 = tested on: MOLT-14
MOLT-4 = tested on: MOLT-4
NALL-1 = tested on: NALL-1
NALM-6 = tested on: NALM-6
P12-ICHIKAWA = tested on: P12-ICHIKAWA
PF-382 = tested on: PF-382
SUP-B15 = tested on: SUP-B15
TANOUE = tested on: TANOUE
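Note: ALL cell lines in 384-well plates, five doses spanning 10,000-fold, each plate scaled between vehicle and 100 µmol/L benzalkonium chloride controls, sDSS an adapted area-under-curve metric.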

SMILES | selective drug sensitivity score 697 | selective drug sensitivity score (ALL-PO) | selective drug sensitivity score (ALL-SIL) | selective drug sensitivity score (COG-LL-317) | selective drug sensitivity score (COG-LL-319h) | selective drug sensitivity score (COG-LL-332h) | selective drug sensitivity score (COG-LL-402h) | selective drug sensitivity score (KASUMI-10) | selective drug sensitivity score (KASUMI-2) | selective drug sensitivity score (LC4-1) | selective drug sensitivity score (MHH-CALL-2) | selective drug sensitivity score (MHH-CALL-4) | selective drug sensitivity score (MOLT-14) | selective drug sensitivity score (MOLT-4) | selective drug sensitivity score (NALL-1) | selective drug sensitivity score (NALM-6) | selective drug sensitivity score (P12-ICHIKAWA) | selective drug sensitivity score (PF-382) | selective drug sensitivity score (SUP-B15) | selective drug sensitivity score (TANOUE)
CC(C)C[C@H](NC(=O)[C@H](CCc1ccccc1)NC(=O)CN1CCOCC1)C(=O)N[C@@H](Cc1ccccc1)C(=O)N[C@@H](CC(C)C)C(=O)[C@@]1(C)CO1 [Carfilzomib] (top concentration 1000 nM) | 0.66 | 4.76 | 1.66 | 1.06 | 2.56 | 5.16 | 2.86 | 0.36 | -0.04 | 2.36 | 1.56 | 1.56 | 1.16 | 0.86 | 0.56 | 1.06 | 1.26 | 1.86 | 4.56 | -8.24
O=C(c1ccc(F)c(F)c1Nc1ccc(I)cc1F)N1CC(O)([C@@H]2CCCCN2)C1 [Cobimetinib] (top concentration 1000 nM) | -2.58 | 0.92 | -2.98 | -3.68 | -1.28 | -3.08 | -0.98 | -3.68 | 4.22 | -0.68 | 0.42 | 2.62 | 5.22 | -3.68 | -1.88 | 2.62 | -1.88 | -3.28 | 6.62 | -3.68
COc1c(OCCCN2CCOCC2)ccc2c1N=C(NC(=O)c1cnc(N)nc1)N1CCN=C21 [Copanlisib] (top concentration 1000 nM) | 3.48 | 8.28 | 0.38 | 6.08 | 3.18 | 2.78 | 8.88 | -1.32 | 4.18 | -4.22 | 6.18 | 9.28 | -3.92 | 4.48 | -0.62 | 8.18 | -0.42 | 2.58 | -2.12 | -6.52
Cn1c(=O)n(-c2ccc(C(C)(C)C#N)cc2)c2c3cc(-c4cnc5ccccc5c4)ccc3ncc21 [Dactolisib] (top concentration 1000 nM) | 15.8 | 4.56 | 4.96 | 2.26 | -7.44 | 5.96 | 5.36 | -1.04 | 9.06 | 5.16 | 9.36 | 4.06 | 0.36 | 5.76 | 3.46 | 6.36 | 4.76 | 9.36 | 10.3 | -2.54
O=C(/C=C/c1cccnc1)NCCCCC1CCN(C(=O)c2ccccc2)CC1 [Daporinad] (top concentration 1000 nM) | 16.3 | 13.8 | 9.46 | 17.7 | 9.76 | 17 | 16.4 | 12.1 | 8.66 | 14.2 | 11.4 | 7.66 | 4.66 | 5.86 | 15.9 | 15.6 | 9.16 | 18.4 | 19.4 | 7.66
CC(=O)N(O)CCCCCNC(=O)CCC(=O)N(O)CCCCCNC(=O)CCC(=O)N(O)CCCCCN [Deferoxamine] (top concentration 10000 nM) | 6.26 | 2.56 | 3.56 | 18.4 | 7.86 | 10.4 | 5.76 | 3.06 | -0.74 | 1.76 | 7.66 | -0.84 | 8.76 | 3.56 | -0.74 | 5.06 | 3.66 | 4.66 | 4.76 | 3.46
Cc1cc(Nc2cc(N3CCN(C)CC3)nc(/C=C/c3ccccc3)n2)n[nH]1 [ENMD-2076] (top concentration 10000 nM) | 9.54 | 10.3 | 8.94 | 5.14 | 5.54 | 4.34 | 4.24 | 9.14 | -4.76 | 7.64 | 5.44 | 0.34 | 6.64 | 5.74 | 5.84 | 5.44 | 8.24 | 1.34 | 4.74 | -9.16
Cc1cnc(Nc2ccc(OCCN3CCCC3)cc2)nc1Nc1cccc(S(=O)(=O)NC(C)(C)C)c1 [Fedratinib] (top concentration 10000 nM) | -0.76 | 3.24 | 0.84 | -3.36 | 4.64 | -2.26 | 1.24 | 4.94 | -6.16 | -0.36 | -0.26 | -1.36 | -0.06 | -2.86 | -1.56 | -1.26 | -2.56 | -3.06 | -0.66 | -7.06
COc1ccc(-c2nc(N3CCOCC3)c3sc(CN(C)c4ncc(C(=O)NO)cn4)cc3n2)cn1 [Fimepinostat (CUDC-907)] (top concentration 10000 nM) | 9.88 | 6.48 | 8.98 | 7.58 | -3.82 | 1.08 | 10.9 | 9.18 | 8.88 | 8.68 | 10.3 | 9.68 | 9.18 | 5.28 | -3.42 | 8.68 | 5.18 | 2.58 | 10.7 | -14.8
CCOC(=O)CCNc1cc(N2CCc3ccccc3CC2)nc(-c2ccccn2)n1 [GSK-J4] (top concentration 100000 nM) | -8.08 | -7.18 | -4.58 | -2.78 | 3.22 | -7.08 | -7.88 | -11.8 | -10.8 | -9.58 | -7.18 | -8.98 | -3.98 | -7.98 | -9.18 | -9.98 | -7.68 | -7.58 | -8.48 | -11.6
Cc1cc(Nc2cc(CN3CCOCC3)c3nc(C)c(Cc4ccc(Cl)cc4F)n3n2)n[nH]1 [Gandotinib] (top concentration 10000 nM) | 5.28 | 4.98 | 9.08 | 8.68 | 8.68 | 2.18 | 5.28 | 7.28 | 7.18 | 6.98 | 7.48 | 4.78 | 3.18 | 4.88 | 4.88 | 4.58 | -0.62 | 1.88 | 7.78 | -7.72
NC(=O)NO [Hydroxyurea] (top concentration 1000000 nM) | 12.8 | -4.54 | 3.56 | 15.4 | 9.26 | 12.5 | 1.56 | 1.86 | -2.14 | 5.26 | 4.56 | -1.04 | 9.16 | 1.56 | -3.74 | 2.56 | 6.46 | 1.26 | 9.96 | -3.94
Cc1ccc(NC(=O)c2ccc(CN3CCN(C)CC3)cc2)cc1Nc1nccc(-c2cccnc2)n1 [Imatinib] (top concentration 10000 nM) | 1.06 | 1.86 | 24.9 | 1.36 | 0.06 | 10.2 | -0.44 | -0.44 | -0.44 | 0.36 | 0.16 | -0.44 | 0.46 | -0.34 | -0.44 | -0.44 | 0.16 | -0.24 | 17.4 | -0.44
CC(C)NC[C@@H](C(=O)N1CCN(c2ncnc3c2[C@H](C)C[C@H]3O)CC1)c1ccc(Cl)cc1 [Ipatasertib] (top concentration 10000 nM) | 2.9 | 6.7 | 2.9 | 11 | 2.4 | 5.8 | 7.3 | 0.7 | 7.9 | -0.6 | 4.7 | 4.5 | -1.8 | 7.1 | 1.8 | 6.2 | 2.9 | 4.2 | 0.8 | -1.8
CCC(C)n1ncn(-c2ccc(N3CCN(c4ccc(OCC5COC(Cn6cncn6)(c6ccc(Cl)cc6Cl)O5)cc4)CC3)cc2)c1=O (stereo not given) [Itraconazole] (top concentration 5000 nM) | 0.18 | 1.88 | 2.88 | -2.12 | 10.7 | 2.48 | -2.12 | -4.32 | -3.22 | 2.88 | 5.48 | -0.12 | -1.02 | -1.92 | -4.12 | -1.02 | -0.32 | 0.38 | 1.18 | -2.92
Cc1sc2c(c1C)C(c1ccc(Cl)cc1)=N[C@@H](CC(=O)OC(C)(C)C)c1nnc(C)n1-2 [JQ1] (top concentration 10000 nM) | 9.72 | 4.62 | -1.08 | 6.62 | 12.1 | -3.08 | 8.12 | 7.22 | -5.08 | 5.02 | 9.62 | 8.52 | -0.58 | -4.28 | 0.42 | 4.32 | 5.12 | 5.22 | 3.02 | -7.48
CCNC(=O)c1noc(-c2cc(C(C)C)c(O)cc2O)c1-c1ccc(CN2CCOCC2)cc1 [Luminespib] (top concentration 1000 nM) | -1.5 | 4.6 | -0.1 | 7.4 | 3.1 | 7.1 | 4.1 | 4.4 | 6.5 | -1.4 | -3.9 | 1.7 | -0.6 | -1.1 | -5.8 | -0.5 | -5 | -1.4 | -1 | -10.5
O=C(c1cccc(Cl)c1F)N1CCN(Cc2cccc(Nc3nccs3)n2)CC1 [MK-8745] (top concentration 10000 nM) | 8.9 | 9.9 | 11.8 | 12.9 | 14.3 | 14 | 14.1 | 11.2 | 6.8 | 11.5 | 12.2 | 4.5 | 7.8 | 11.8 | 12.4 | 9.6 | 11.3 | 8.5 | 18.3 | -0.8
